Measured values published in patent US20210069375A1, “Extracellular Matrices, Uses thereof, and Method for Making Extracellular Matrices” (Gemstone Biotherapeutics LLC, priority 2017, published 2021).

Assay: reactivity of the drug under the curing conditions of the EMR
Type: physicochemical
Details: mixed with dextramate, PEGDA and Irgacure, cured for 10 minutes
Protocol: Dextramate (24.2 mL of a 23.1 w/w % solution), PEGDA (16.3 mL of a 8.6 w/w % solution), Irgacure (14 mL of a 0.5 w/w % solution), and valsartan (2.82 mL or 1.41 mL of a 24.8 w/w % solution or 2.82 mL of a 1:10 dilution of a 24.8 w/w % solution) are mixed together. The mixture is cured for 10 minutes. After curing, 100 mL of dH2O is added to the cured product to create a swelled gel.

With `CCCCC(=O)N(Cc1ccc(-c2ccccc2-c2nnn[nH]2)cc1)[C@H](C(=O)O)C(C)C` [valsartan] the “reactivity under the curing conditions” value was “does not exhibit reactivity”.
